In patent US7138361B2, “Herbicidal heterocycles” (E. I. du Pont de Nemours and Company, priority 2000, dated 2006):

Assays:
Assay type in all cases: in vivo
[1] = test system: barnyardgrass (Echinochloa crus-galli); assay: Test B preemergence
How it was run: (§1)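 Ratings on a 0 to 100 visual scale (100 complete control) compare treated plants with controls 13 to 15 days after application. Treatments were pre- or postemergence sprays of compound in non-phytotoxic solvent with surfactant.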

[2] = test system: crabgrass (Digitaria sanguinalis); assay: Test B preemergence
How it was run: as §1

[3] = test system: morning glory (Ipomoea hederacea); assay: Test B preemergence
How it was run: as §1

[4] = test system: Surinam grass (Brachiaria decumbens); assay: Test B preemergence
How it was run: as §1

[5] = test system: cocklebur (Xanthium strumarium); assay: Test B preemergence
How it was run: as §1

[6] = test system: pigweed (Amaranthus retroflexus); assay: Test B preemergence
How it was run: as §1

rice (Oryza saliva) [7] = assay: Test B preemergence
How it was run: as §1

[8] = test system: velvetleaf (Abutilon theophrasti); assay: Test B preemergence
How it was run: as §1

corn (Zea mays) [9] = assay: Test B preemergence
How it was run: as §1

[10] = test system: lambsquarters (Chenopodium album); assay: Test B preemergence
How it was run: as §1

[11] = test system: giant foxtail (Setaria faberii); assay: Test B preemergence
How it was run: as §1

[12] = test system: barnyardgrass (Echinochloa crus-galli); assay: Test B postemergence; conditions: 13 to 15 days
How it was run: as §1

[13] = test system: crabgrass (Digitaria sanguinalis); assay: Test B postemergence; conditions: 13 to 15 days
How it was run: as §1

[14] = test system: morning glory (Ipomoea hederacea); assay: Test B postemergence; conditions: Rate 500 g/ha, scale 0 to 100, 0 is no effect, 100 is complete control, 13 to 15 days
How it was run: as §1

[15] = test system: Surinam grass (Brachiaria decumbens); assay: Test B postemergence; conditions: 13 to 15 days
How it was run: as §1

wild oat (Avena fatua) = assay: Test B postemergence; conditions: Rate 500 g/ha, scale 0 to 100, 0 is no effect, 100 is complete control, 13 to 15 days
How it was run: as §1

[16] = test system: wheat (Triticum aestivum); assay: Test B postemergence; conditions: Rate 500 g/ha, scale 0 to 100, 0 is no effect, 100 is complete control, 13 to 15 days
How it was run: as §1

[17] = test system: cocklebur (Xanthium strumarium); assay: Test B postemergence; conditions: 13 to 15 days
How it was run: as §1

[18] = test system: pigweed (Amaranthus retroflexus); assay: Test B postemergence; conditions: Rate 500 g/ha, scale 0 to 100, 0 is no effect, 100 is complete control, 13 to 15 days
How it was run: as §1

[19] = test system: velvetleaf (Abutilon theophrasti); assay: Test B postemergence; conditions: Rate 500 g/ha, scale 0 to 100, 0 is no effect, 100 is complete control, 13 to 15 days
How it was run: as §1

[20] = test system: blackgrass (Alopecurus myosuroides); assay: Test B postemergence; conditions: 13 to 15 days
How it was run: as §1

corn (Zea mays) [21] = assay: Test B postemergence; conditions: 13 to 15 days
How it was run: as §1

[22] = test system: lambsquarters (Chenopodium album); assay: Test B postemergence; conditions: Rate 500 g/ha, scale 0 to 100, 0 is no effect, 100 is complete control, 13 to 15 days
How it was run: as §1

[23] = test system: giant foxtail (Setaria faberii); assay: Test B postemergence; conditions: 13 to 15 days
How it was run: as §1

[24] = test system: barnyardgrass (Echinochloa crus-galli); assay: Test C flooded paddy test; conditions: for Barnyardgrass plant response rating: Flooded Paddy, scale 0 to 100, 0 no effect, 100 complete control; for Plant response rating, Barnyardgrass: flooded paddy test, scale 0 to 100 (0 no effect, 100 complete control)
How it was run: (§2)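 Visual injury score, 0 (no effect) to 100 (complete control), relative to controls. Paddy plants treated at 2-leaf stage; greenhouse hold 12–14 d before rating.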

[25] = test system: smallflower flatsedge (Cyperus difformis); assay: Test C flooded paddy test; conditions: for Flatsedge plant response rating: Flooded Paddy, scale 0 to 100, 0 no effect, 100 complete control; for Plant response rating, Flatsedge: flooded paddy test, scale 0 to 100 (0 no effect, 100 complete control)
How it was run: as §2

rice (Oryza saliva) [26] = assay: Test C flooded paddy test; conditions: for Rice plant response rating: Flooded Paddy, scale 0 to 100, 0 no effect, 100 complete control; for Plant response rating, Rice: flooded paddy test, scale 0 to 100 (0 no effect, 100 complete control)
How it was run: as §2

[27] = test system: duck salad (Heteranthera limosa); assay: Test C flooded paddy test; conditions: for Ducksalad plant response rating: Flooded Paddy, scale 0 to 100, 0 no effect, 100 complete control; for Plant response rating, Ducksalad: flooded paddy test, scale 0 to 100 (0 no effect, 100 complete control)
How it was run: as §2

[28] = Preemergence, Rate 500 g/ha, scale 0 to 100, 0 no effect, 100 complete control
[29] = preemergence, Rate 125 g/ha, scale of 0 to 100 where 0 is no effect and 100 is complete control, 13 to 15 days
[30] = Rate 125 g/ha, scale 0 (no effect) to 100 (complete control)
[31] = Rate 500 g/ha, scale 0 to 100, 0 is no effect, 100 is complete control

## Cc1ccc(N2CCC(n3ccc(C(C)(C)C)n3)C2=O)cc1OC(C)C (stereo not shown) [Compound 110]
[1]; [28]
  Plant response rating, Barnyardgrass: 0
[1]; [29]
  Plant response rating, Barnyardgrass: 30
[2]; [28]
  Plant response rating, Crabgrass: 100
[2]; [29]
  Plant response rating, Crabgrass: 100
[3]; [28]
  Plant response rating, Morningglory: 0
[3]; [29]
  Plant response rating, Morningglory: 0
[4]; [28]
  Plant response rating, Surinam grass: 40
[4]; [29]
  Plant response rating, Surinam grass: 0
[5]; [28]
  Plant response rating, Cocklebur: 70
[5]; [29]
  Plant response rating, Cocklebur: 0
[6]; [28]
  Plant response rating, Pigweed: 100
[6]; [29]
  Plant response rating, Pigweed: 100
Rice (Oryza saliva) [7]; [28]
  Plant response rating, Rice: 0
Rice (Oryza saliva) [7]; [29]
  Plant response rating, Rice: 0
[8]; [28]
  Plant response rating, Velvetleaf: 80
[8]; [29]
  Plant response rating, Velvetleaf: 0
Corn (Zea mays) [9]; [28]
  Plant response rating, Corn: 0
Corn (Zea mays) [9]; [29]
  Plant response rating, Corn: 0
[10]; [28]
  Plant response rating, Lambsquarters: 100
[10]; [29]
  Plant response rating, Lambsquarters: 0
[11]; [28]
  Plant response rating, Foxtail, Giant: 50
[11]; [29]
  Plant response rating, Foxtail, Giant: 0
[12]; [30]
  Plant response rating, Barnyardgrass: 0
[12]; [31]
  Plant response rating, Barnyardgrass: 0
[13]; [30]
  Plant response rating, Crabgrass: 0
[13]; [31]
  Plant response rating, Crabgrass: 0
[14]
  Plant response rating, Morningglory: 60
[15]; [30]
  Plant response rating, Surinam grass: 0
[15]; [31]
  Plant response rating, Surinam grass: 0
Wild oat (Avena fatua)
  Plant response rating, Wild Oat: 0
[16]
  Plant response rating, Wheat: 0
[17]; [30]
  Plant response rating, Cocklebur: 30
[17]; [31]
  Plant response rating, Cocklebur: 30
[18]
  Plant response rating, Pigweed: 70
[19]
  Plant response rating, Velvetleaf: 70
[20]; [30]
  Plant response rating, Blackgrass: 0
[20]; [31]
  Plant response rating, Blackgrass: 0
Corn (Zea mays) [21]; [30]
  Plant response rating, Corn: 0
Corn (Zea mays) [21]; [31]
  Plant response rating, Corn: 0
[22]
  Plant response rating, Lambsquarters: 90
[23]; [30]
  Plant response rating, Foxtail, Giant: 0
[23]; [31]
  Plant response rating, Foxtail, Giant: 0
[24]; Rate 250 g/ha
  Barnyardgrass plant response rating: 70
[24]; Rate 500 g/ha
  Barnyardgrass plant response rating: 80
[24]; Rate 62 g/ha
  Plant response rating, Barnyardgrass: 0
[24]; Rate 125 g/ha
  Plant response rating, Barnyardgrass: 0
[25]; Rate 250 g/ha
  Flatsedge plant response rating: 100
[25]; Rate 500 g/ha
  Flatsedge plant response rating: 100
[25]; Rate 62 g/ha
  Plant response rating, Flatsedge: 50
[25]; Rate 125 g/ha
  Plant response rating, Flatsedge: 50
Rice (Oryza saliva) [26]; Rate 250 g/ha
  Rice plant response rating: 70
Rice (Oryza saliva) [26]; Rate 500 g/ha
  Rice plant response rating: 80
Rice (Oryza saliva) [26]; Rate 62 g/ha
  Plant response rating, Rice: 0
Rice (Oryza saliva) [26]; Rate 125 g/ha
  Plant response rating, Rice: 30
[27]; Rate 250 g/ha
  Ducksalad plant response rating: 70
[27]; Rate 500 g/ha
  Ducksalad plant response rating: 70
[27]; Rate 62 g/ha
  Plant response rating, Ducksalad: 10
[27]; Rate 125 g/ha
  Plant response rating, Ducksalad: 20
